Values after ≈ are worked out from the molar mass of the structure shown. Values joined by “and” are separate entries in the source; they are usually repeats but may differ in a detail not shown here. Equal entries are not always repeated.
Legend:
[1] = system: Staphylococcus aureaus CHP; experiment: mice infected intraperitoneally, single dose six hours post-infection, deaths and CD50; type: in vivo; conditions: for ED50: Staphylococcus
Description: Mice are infected intraperitoneally with a standardized suspension of Staphylococcus aureaus CHP in 5% gastric mucin. The animals are randomized. Six hours post-infection a single dose of the compound indicated is administered by the route indicated. The animals are observed for a 30 day period and deaths are recorded daily. The CD50 for 14 and 30 days as determined by the method of Reed and Muench, American Journal of Hygiene (1938), for each compound is tabulated:
7-[2-(5-Acetylamino-1,3,4-thiadiazol-2-ylthio)acetamido]cephalosporanic acid is tested as described in Example 5.

[2] = system: Acinetobacter calcoaceticus 9957; experiment: agar serial dilution MIC; type: cell-based; conditions: Example 4, read-out: MIC
Description: (§1) A stock solution of 7-[2-(4,5-dihydro-5-imino-1,3,4-thiadiazol-2-ylthio)acetamido]cephalosporanic acid as the hydrobromic acid addition salt containing 2,500 μg. of the active moiety is prepared in phosphate buffer. Two fold serial dilutions are prepared with phosphate buffer. One milliliter (ml.) quantities of each dilution are incorporated in 9 ml. seen agar in sterile Petri plates. The hardened surface is innoculated with test organisms using a Steers replicating device. The plates are incubated at 35° C. for 18 hours.
(§2) The test organisms are Bacillus subtilis (BA SU) 6633; Staphylococcus aureus (ST AU) 6538P, Smith CHP, and 3-180; Mycobacterium smegmatis (MY SM) 10143; Neisseria catarrhalis (NE CA) 8193; Pseudonomas aeruginosa (PS AE) 10145; Escherichia coli (ES CO) 9637, and 920; Escherichia intermedia (ES IN) 65-1; Salmonella paratyphi (SA PA) 11737; Enterobacter aerogenes (EN AE) 13048; Klebsiella pneumoniae (KL PN) 10031; Bordetella bronchiseptica (BO BR) 4617; Proteus vulgaris (PR VU) 6896; and Herellea species (HE SP) 9955. These organisms are grown for 18 hours in Brain heart infusion at 35° C. Prior to use the cultures are diluted 10 fold with the infusion, except in the case of Mycobacterium. The latter is grown in Emerson's broth for 5 days at 28° C. in shaker flasks and used undiluted.
(§3) Following the procedure of Example 2 but substituting the organisms listed below the same preparation of 7-[2-(4,5-dihydro-5-imino-1,3,4-thiadiazol-2-ylthio)acetamido]cephalosporanic acid (Compound A) as used in Example 3, a third sample of the same compound, prepared as described in Example 1 (Compound B) and 7-[2-(5-acetamido-1,3,4-thiadiazol-2-ylthio)acetamido]cephalosporanic acid (Compound C) are tested to obtain the results shown: […]

Arizona arizonae 13314 = experiment: agar serial dilution MIC; type: cell-based; conditions: Salmonella enterica, 13314, Example 4
Description: as §1, §2, §3

[3] = system: Citrobacter diversus 27156; experiment: agar serial dilution MIC; type: cell-based; conditions: Citrobacter koseri, Example 4
Description: as §1, §2, §3

[4] = system: Citrobacter freundii 8090; experiment: agar serial dilution MIC; type: cell-based; conditions: Example 4
Description: as §1, §2, §3

Edwardsiella tarda 15947 = experiment: agar serial dilution MIC; type: cell-based; conditions: Edwardsiella tarda, 15947; Example 4; read-out: MIC
Description: as §1, §2, §3

[5] = system: Enterobacter agglomerans 27155; experiment: agar serial dilution MIC; type: cell-based; conditions: Pantoea agglomerans, 27155; Example 4; read-out: MIC
Description: as §1, §2, §3

[6] = system: Enterobacter cloacae 13047; experiment: agar serial dilution MIC; type: cell-based; conditions: Example 4
Description: as §1, §2, §3

[7] = system: Enterobacter havniae 11604; experiment: agar serial dilution MIC; type: cell-based; conditions: Example 4
Description: as §1, §2, §3

Klebsiella ozaenae 11296 = experiment: agar serial dilution MIC; type: cell-based; conditions: Example 4, read-out: MIC
Description: as §1, §2, §3

[8] = system: Klebsiella pneumoniae 13883; experiment: agar serial dilution MIC; type: cell-based; conditions: Klebsiella pneumoniae, 13883, Example 4
Description: as §1, §2, §3

[9] = system: Klebsiella rhinoscleromatis 13884; experiment: agar serial dilution MIC; type: cell-based; conditions: Klebsiella pneumoniae, Example 4
Description: as §1, §2, §3

Proteus mirabilis 9921 = experiment: agar serial dilution MIC; type: cell-based; conditions: Example 4
Description: as §1, §2, §3

[10] = system: Providencia alcalifaciens 9886; experiment: agar serial dilution MIC; type: cell-based; conditions: Example 4
Description: as §1, §2, §3

[11] = system: Providencia stuartii 25825; experiment: agar serial dilution MIC; type: cell-based; conditions: Example 4
Description: as §1, §2, §3

[12] = system: Salmonella cholera-suis 13312; experiment: agar serial dilution MIC; type: cell-based
Description: as §1, §2, §3

[13] = system: Salmonella enteritidis 13076; experiment: agar serial dilution MIC; type: cell-based; conditions: Salmonella enterica, Example 4
Description: as §1, §2, §3

Salmonella typhi 19430 = experiment: agar serial dilution MIC; type: cell-based; conditions: Salmonella enterica
Description: as §1, §2, §3

[14] = system: Serratia liquefaciens 27592; experiment: agar serial dilution MIC; type: cell-based; conditions: Example 4
Description: as §1, §2, §3

[15] = system: Serratia marcescens 13880; experiment: agar serial dilution MIC; type: cell-based; conditions: Example 4
Description: as §1, §2, §3

Serratia rubidae 27593 = experiment: agar serial dilution MIC; type: cell-based; conditions: Example 4
Description: as §1, §2, §3

Shigella boydii 9207 = experiment: agar serial dilution MIC; type: cell-based; conditions: Example 4
Description: as §1, §2, §3

Shigella flexneri 12025 = experiment: agar serial dilution MIC; type: cell-based; conditions: Shigella flexneri, 12025, Example 4; read-out: MIC
Description: as §1, §2, §3

Shigella sonnei 11060 = experiment: agar serial dilution MIC; type: cell-based; conditions: Example 4
Description: as §1, §2, §3

[16] = sc, 336 h, subcutaneous, 14 Days, single dose, mice
[17] = sc, 720 h, subcutaneous, 30 Days, single dose, mice
[18] = subcutaneous, 50 mg/kg., 14 Days
[19] = subcutaneous, 50 mg/kg., 30 Days
[20] = subcutaneous, 100 mg/kg., 14 Days
[21] = subcutaneous, 100 mg/kg., 30 Days
[22] = subcutaneous, 200 mg/kg., 14 Days
[23] = subcutaneous, 200 mg/kg., 30 Days
[24] = subcutaneous, 400 mg/kg., 14 Days
[25] = subcutaneous, 400 mg/kg., 30 Days
[26] = subcutaneous, 14 Days, single dose, mice, 20160 min

Cc1nnc(SCC2=C(C(=O)O)N3C(=O)[C@@H](NC(=O)Cn4cnnn4)[C@H]3SC2)s1 [Cefazolin]
ED50 [1, 16]: 6.41 mg/kg | ED50 [1, 17]: 7.2 mg/kg | Deaths / Total No. Treated [1, 18]: 10/10 | Deaths / Total No. Treated [1, 19]: 10/10 | Deaths / Total No. Treated [1, 20]: 10/10 and 8/10 | Deaths / Total No. Treated [1, 21]: 10/10 | Deaths / Total No. Treated [1, 22]: 10/10 | Deaths / Total No. Treated [1, 23]: 10/10 | Deaths / Total No. Treated [1, 24]: 4/10 | Deaths / Total No. Treated [1, 25]: 5/10 | CD50 [1, 26]: 5.82 mg/kg

CC(=O)Nc1nnc(SCC(=O)NC2C(=O)N3C(C(=O)O)=C(COC(C)=O)CSC23)s1 (stereo not drawn) [Compound C, 7-[2-(5-acetamido-1,3,4-thiadiazol-2-ylthio)acetamido]cephalosporanic acid, reference compound]
MIC [2]: 250 µg/mL (≈ 513 µM) | MIC (Arizona arizonae 13314): 31.3 µg/mL (≈ 64.2 µM) | MIC [3]: 15.6 µg/mL (≈ 32 µM) | MIC [4]: > 250 µg/mL | MIC (Edwardsiella tarda 15947): 7.81 µg/mL (≈ 16 µM) | MIC [5]: 7.81 µg/mL (≈ 16 µM) | MIC [6]: > 250 µg/mL | MIC [7]: 250 µg/mL (≈ 513 µM) | MIC (Klebsiella ozaenae 11296): 7.81 µg/mL (≈ 16 µM) | MIC [8]: 62.5 µg/mL (≈ 128 µM) | MIC [9]: > 250 µg/mL | MIC (Proteus mirabilis 9921): 15.6 µg/mL (≈ 32 µM) | MIC [10]: > 250 µg/mL | MIC [11]: 250 µg/mL (≈ 513 µM) | MIC [12]: 15.6 µg/mL (≈ 32 µM) | MIC [13]: 31.3 µg/mL (≈ 64.2 µM) | MIC (Salmonella typhi 19430): 15.6 µg/mL (≈ 32 µM) | MIC [14]: > 250 µg/mL | MIC [15]: > 250 µg/mL | MIC (Serratia rubidae 27593): > 250 µg/mL | MIC (Shigella boydii 9207): 31.3 µg/mL (≈ 64.2 µM) | MIC (Shigella flexneri 12025): 15.6 µg/mL (≈ 32 µM) | MIC (Shigella sonnei 11060): 62.5 µg/mL (≈ 128 µM) | ED50 ([1]; po, Example 6, mice): > 7.2 mg/kg | oral activity against the test organism ([1]; oral, Example 6, mice): lack of significant oral activity

CCOc1ccc2ccccc2c1C(=O)N[C@@H]1C(=O)N2[C@@H]1SC(C)(C)[C@@H]2C(=O)O [Nafcillin]
ED50 [1, 16]: 3.12 mg/kg | ED50 [1, 17]: 3.9 mg/kg | Deaths / Total No. Treated [1, 18]: 9/10 and 10/10 | Deaths / Total No. Treated [1, 19]: 9/10 and 10/10 | Deaths / Total No. Treated [1, 20]: 9/10 and 7/10 | Deaths / Total No. Treated [1, 21]: 10/10 and 7/10 | Deaths / Total No. Treated [1, 22]: 3/10 and 4/10 | Deaths / Total No. Treated [1, 23]: 4/10 | Deaths / Total No. Treated [1, 24]: 3/10 and 4/10 | Deaths / Total No. Treated [1, 25]: 4/10 | CD50 [1, 26]: 3.41 mg/kg | CD50 ([1]; subcutaneous, 30 Days, single dose, mice, 43200 min): 3.41 mg/kg

Reference: patent publication US3971779A, “7-[2-(5-Amino-1,3,4-thiadiazol-2-ylthio)acetamido]cephalosporins” (American Home Products Corporation, priority 1975, dated 1976)
